Experimental data as given in the OligoGym collection.
HELM strings list units from the 5' end as sugar, base in round brackets, then linkage (d deoxyribose, r ribose, m 2'-O-methyl, p phosphodiester). Strings are as the collection lists them; they lack the last nucleoside at the 3' end of the tested compound. [moe] = 2'-O-(2-methoxyethyl) (MOE); [sp] = phosphorothioate linkage; [m5C] = 5-methylcytosine

Target: ATXN2
Assay: mouse, dose not given
Settings: ASO

Substance | 3 h FOB score [score 0-7]
RNA1{[moe](G)[sp].[moe](G)[sp].[moe](A)[sp].[moe](G)[sp].[moe]([m5C])[sp].d(T)[sp].d(G)[sp].d(G)[sp].d(A)[sp].d(G)[sp].d(A)[sp].d(A)[sp].d([m5C])[sp].d([m5C])[sp].d(A)[sp].[moe](T)[sp].[moe](G)[sp].[moe](A)[sp].[moe](G)}$$$$ (last 3' nucleoside missing) | 7
RNA1{[moe](G)[sp].[moe](G)p.[moe](A)p.[moe](A)p.[moe](T)p.d([m5C])[sp].d(T)[sp].d(T)[sp].d(A)[sp].d(T)[sp].d(T)[sp].d(A)[sp].d(A)[sp].d(G)[sp].d([m5C])[sp].[moe](A)p.[moe](A)p.[moe](G)[sp].[moe](T)}$$$$ (last 3' nucleoside missing) | 4.5
RNA1{[moe](G)[sp].[moe](G)p.[moe](A)p.[moe](T)p.[moe](A)p.d([m5C])[sp].d(A)[sp].d(A)[sp].d(A)[sp].d(T)[sp].d(T)[sp].d([m5C])[sp].d(T)[sp].d(A)[sp].d(G)[sp].[moe](G)p.[moe]([m5C])p.[moe]([m5C])[sp].[moe](A)}$$$$ (last 3' nucleoside missing) | 4
RNA1{[moe](G)[sp].[moe](G)p.[moe](A)p.[moe](T)p.[moe](T)[sp].d([m5C])[sp].d(T)[sp].d(G)[sp].d(T)[sp].d(A)[sp].d([m5C])[sp].d(T)[sp].d(T)[sp].[moe](T)p.[moe](T)p.[moe]([m5C])[sp].[moe](T)}$$$$ (last 3' nucleoside missing) | 2.5
RNA1{[moe](G)[sp].[moe](G)p.[moe](A)p.[moe](T)p.[moe](T)p.d(G)[sp].d(T)[sp].d(T)[sp].d(T)[sp].d(T)[sp].d([m5C])[sp].d(T)[sp].d(T)[sp].d([m5C])[sp].d(A)[sp].[moe](T)p.[moe](T)p.[moe](A)[sp].[moe](T)}$$$$ (last 3' nucleoside missing) | 0
RNA1{[moe](G)[sp].[moe](G)p.[moe](A)p.[moe](T)p.[moe](T)p.d([m5C])[sp].d(T)[sp].d(G)[sp].d(T)[sp].d(A)[sp].d([m5C])[sp].d(T)[sp].d(T)[sp].d(T)[sp].d(T)[sp].[moe]([m5C])p.[moe](T)p.[moe]([m5C])[sp].[moe](A)}$$$$ (last 3' nucleoside missing) | 1
RNA1{[moe](G)[sp].[moe](G)p.[moe](A)p.[moe]([m5C])p.[moe](A)p.d(A)[sp].d(G)[sp].d(A)[sp].d(A)[sp].d(A)[sp].d(T)[sp].d(T)[sp].d(T)[sp].d(T)[sp].d([m5C])[sp].[moe](A)p.[moe](G)p.[moe](T)[sp].[moe](T)}$$$$ (last 3' nucleoside missing) | 4.5
RNA1{[moe](G)[sp].[moe](G)p.[moe](T)p.[moe](A)p.[moe](A)p.d([m5C])[sp].d(A)[sp].d(G)[sp].d([m5C])[sp].d(T)[sp].d([m5C])[sp].d(T)[sp].d(G)[sp].d(T)[sp].d(T)[sp].[moe]([m5C])p.[moe](G)p.[moe](A)[sp].[moe](T)}$$$$ (last 3' nucleoside missing) | 7
RNA1{[moe](G)[sp].[moe](G)p.[moe](T)p.[moe](A)p.[moe]([m5C])p.d(A)[sp].d([m5C])[sp].d(A)[sp].d(G)[sp].d(T)[sp].d(T)[sp].d(T)[sp].d([m5C])[sp].d(A)[sp].d([m5C])[sp].[moe](T)p.[moe](A)p.[moe](G)[sp].[moe](G)}$$$$ (last 3' nucleoside missing) | 4.75
RNA1{[moe](G)[sp].[moe](G)p.[moe](T)p.[moe](G)p.[moe](A)p.d(T)[sp].d(G)[sp].d(T)[sp].d(T)[sp].d(T)[sp].d([m5C])[sp].d(A)[sp].d(T)[sp].d(T)[sp].d(G)[sp].[moe](G)p.[moe](G)p.[moe](T)[sp].[moe](T)}$$$$ (last 3' nucleoside missing) | 4.5
RNA1{[moe](G)[sp].[moe](G)p.[moe](T)p.[moe](G)p.[moe](G)[sp].d(T)[sp].d(G)[sp].d(T)[sp].d(G)[sp].d([m5C])[sp].d(G)[sp].d([m5C])[sp].d(A)[sp].[moe](T)p.[moe](G)p.[moe](T)[sp].[moe](A)}$$$$ (last 3' nucleoside missing) | 7
RNA1{[moe](G)[sp].[moe](G)p.[moe](T)p.[moe](G)p.[moe](G)p.d(T)[sp].d(G)[sp].d(T)[sp].d(G)[sp].d([m5C])[sp].d(G)[sp].d([m5C])[sp].d(A)[sp].d(T)[sp].d(G)[sp].[moe](T)p.[moe](A)p.[moe](G)[sp].[moe](A)}$$$$ (last 3' nucleoside missing) | 7
RNA1{[moe](G)[sp].[moe](G)p.[moe](T)p.[moe]([m5C])p.[moe](A)p.d(A)[sp].d(G)[sp].d(G)[sp].d(T)[sp].d([m5C])[sp].d(A)[sp].d(A)[sp].d(T)[sp].d(A)[sp].d([m5C])[sp].[moe](T)p.[moe](T)p.[moe](T)[sp].[moe](T)}$$$$ (last 3' nucleoside missing) | 2
RNA1{[moe](G)[sp].[moe](G)p.[moe]([m5C])p.[moe](T)p.[moe](G)p.d(G)[sp].d(A)[sp].d(A)[sp].d(G)[sp].d(T)[sp].d([m5C])[sp].d(T)[sp].d(G)[sp].d(A)[sp].d(A)[sp].[moe]([m5C])p.[moe]([m5C])p.[moe]([m5C])[sp].[moe]([m5C])}$$$$ (last 3' nucleoside missing) | 6
RNA1{[moe](G)[sp].[moe](T)[sp].[moe](G)[sp].[moe](G)[sp].[moe](G)[sp].d(A)[sp].d(T)[sp].d(A)[sp].d([m5C])[sp].d(A)[sp].d(A)[sp].d(A)[sp].d(T)[sp].d(T)[sp].d([m5C])[sp].[moe](T)[sp].[moe](A)[sp].[moe](G)[sp].[moe](G)}$$$$ (last 3' nucleoside missing) | 7
RNA1{[moe](G)[sp].[moe](T)p.[moe](A)p.[moe](A)p.[moe]([m5C])p.d(A)[sp].d(A)[sp].d(T)[sp].d(T)[sp].d(G)[sp].d(T)[sp].d(A)[sp].d(A)[sp].d(A)[sp].d(T)[sp].[moe]([m5C])p.[moe]([m5C])p.[moe](A)[sp].[moe](T)}$$$$ (last 3' nucleoside missing) | 0.75
RNA1{[moe](G)[sp].[moe](T)p.[moe](A)p.[moe](G)p.[moe](T)p.d(G)[sp].d(T)[sp].d(T)[sp].d(T)[sp].d(G)[sp].d(G)[sp].d(G)[sp].d(A)[sp].d(T)[sp].d(G)[sp].[moe]([m5C])p.[moe](T)p.[moe](T)[sp].[moe]([m5C])}$$$$ (last 3' nucleoside missing) | 6
RNA1{[moe](G)[sp].[moe](T)p.[moe](A)p.[moe](T)p.[moe](G)[sp].d(T)[sp].d(T)[sp].d(T)[sp].d(G)[sp].d(T)[sp].d([m5C])[sp].d(T)[sp].d(G)[sp].[moe](T)p.[moe]([m5C])p.[moe](T)[sp].[moe](T)}$$$$ (last 3' nucleoside missing) | 6.5
RNA1{[moe](G)[sp].[moe](T)p.[moe](A)p.[moe](T)p.[moe](G)p.d(T)[sp].d(T)[sp].d(T)[sp].d(G)[sp].d(T)[sp].d([m5C])[sp].d(T)[sp].d(G)[sp].d(T)[sp].d([m5C])[sp].[moe](T)p.[moe](T)p.[moe](A)[sp].[moe](T)}$$$$ (last 3' nucleoside missing) | 6
RNA1{[moe](G)[sp].[moe](T)p.[moe](A)p.[moe](T)p.[moe](T)p.d(T)[sp].d(T)[sp].d(T)[sp].d([m5C])[sp].d(T)[sp].d(T)[sp].d([m5C])[sp].d([m5C])[sp].d(T)[sp].d([m5C])[sp].[moe](A)p.[moe]([m5C])p.[moe](T)[sp].[moe]([m5C])}$$$$ (last 3' nucleoside missing) | 3.25
RNA1{[moe](G)[sp].[moe](T)p.[moe](A)p.[moe](T)p.[moe]([m5C])p.d(A)[sp].d(T)[sp].d(A)[sp].d(T)[sp].d(A)[sp].d(T)[sp].d(T)[sp].d(T)[sp].d([m5C])[sp].d(T)[sp].[moe]([m5C])p.[moe](A)p.[moe](G)[sp].[moe]([m5C])}$$$$ (last 3' nucleoside missing) | 2.25
RNA1{[moe](G)[sp].[moe](T)p.[moe](A)p.[moe]([m5C])p.[moe](A)p.d(T)[sp].d(T)[sp].d(T)[sp].d(T)[sp].d(A)[sp].d(A)[sp].d([m5C])[sp].d([m5C])[sp].d([m5C])[sp].d(T)[sp].[moe](T)p.[moe](T)p.[moe](G)[sp].[moe](A)}$$$$ (last 3' nucleoside missing) | 2.5
RNA1{[moe](G)[sp].[moe](T)p.[moe](A)p.[moe]([m5C])p.[moe](A)p.d([m5C])[sp].d(A)[sp].d(G)[sp].d(T)[sp].d(T)[sp].d(T)[sp].d([m5C])[sp].d(A)[sp].d([m5C])[sp].d(T)[sp].[moe](A)p.[moe](G)p.[moe](G)[sp].[moe](T)}$$$$ (last 3' nucleoside missing) | 3
RNA1{[moe](G)[sp].[moe](T)p.[moe](A)p.[moe]([m5C])p.[moe](T)[sp].d(T)[sp].d(T)[sp].d(T)[sp].d([m5C])[sp].d(T)[sp].d([m5C])[sp].d(A)[sp].d(T)[sp].[moe](G)p.[moe](T)p.[moe](G)[sp].[moe]([m5C])}$$$$ (last 3' nucleoside missing) | 1.25
RNA1{[moe](G)[sp].[moe](T)p.[moe](A)p.[moe]([m5C])p.[moe](T)[sp].d(T)[sp].d([m5C])[sp].d(A)[sp].d([m5C])[sp].d(A)[sp].d(T)[sp].d(T)[sp].d(T)[sp].[moe](G)p.[moe](G)p.[moe](A)[sp].[moe](G)}$$$$ (last 3' nucleoside missing) | 1
RNA1{[moe](G)[sp].[moe](T)p.[moe](A)p.[moe]([m5C])p.[moe](T)p.d(T)[sp].d(T)[sp].d(T)[sp].d([m5C])[sp].d(T)[sp].d([m5C])[sp].d(A)[sp].d(T)[sp].d(G)[sp].d(T)[sp].[moe](G)p.[moe]([m5C])p.[moe](G)[sp].[moe](G)}$$$$ (last 3' nucleoside missing) | 1
RNA1{[moe](G)[sp].[moe](T)p.[moe](A)p.[moe]([m5C])p.[moe](T)p.d(T)[sp].d([m5C])[sp].d(A)[sp].d([m5C])[sp].d(A)[sp].d(T)[sp].d(T)[sp].d(T)[sp].d(G)[sp].d(G)[sp].[moe](A)p.[moe](G)p.[moe]([m5C])[sp].[moe]([m5C])}$$$$ (last 3' nucleoside missing) | 1
